The first data set can be described thus: in vitro. The conditions noted are these: human, hela cells, % viability.
The term viability denotes a read-out of living cells in per cent, often relative to untreated cells. Take `CC1CCCN(C(=O)CN2C3CCC2CC(O)(c2ccco2)C3)C1` (stereo not shown) [CBK284095]: the viability at 28.5 h, 10 µM was found to be 98.8%.

`O=C(O)CCc1ccc(-c2cc(N3CCN(c4ccccn4)CC3)ncn2)cc1` [CBK037821]: the viability at 28.5 h, 10 µM was 105%.

With `C=CCN1C(=O)CC2(C1=O)C(=O)N(CCCN(C)S(C)(=O)=O)c1ccc(Cl)cc12` (stereo not shown) [CBK075432], the viability at 28.5 h, 10 µM was 97.3%.

As for `COc1ccc(Br)cc1S(=O)(=O)Nc1c(C(=O)Nc2ccc(F)cc2)[nH]c2ccccc12` [CBK050095], the viability at 28.5 h, 10 µM came to 88.2%.

With `O=C(Cn1c(-c2cccs2)cc2cccnc21)NCc1cccnc1` [CBK282457], the viability at 28.5 h, 10 µM was determined as 105%.

Consider `COc1cccc2cc(C(=O)NCc3cccc4ccccc34)oc12` [CBK149800], for which the viability at 28.5 h, 10 µM was found to be 78.6%.

Turning to `COc1cccc(C2C(C(=O)c3ccc(C)o3)=C(O)C(=O)N2CCN2CCOCC2)c1` (stereo not shown) [CBK264899], the viability at 28.5 h, 10 µM amounted to 92.8%.

Take `O=C(NCc1cccnc1-n1cccn1)c1c[nH]c(C(=O)N2CCCC2)c1` [CBK298263]: the viability at 28.5 h, 10 µM was 99.1%.

Consider `O=C(CO)N1CC2(CCN(Cc3cc(=O)[nH]c(=O)[nH]3)CC2)c2ccccc21` [CBK131510], for which the viability at 28.5 h, 10 µM came out at 106%.

With `OC(COc1ccccc1)Cn1ncnn1` (stereo not shown) [CBK026083], the viability at 28.5 h, 10 µM was determined as 89.6%.

On to `c1cncc(-c2cncc(NCC3CCOCC3)n2)c1` [CBK037195], for which the viability at 28.5 h, 10 µM was found to be 92.7%.

With `CC(=O)Nc1ccc(C(=O)Nc2ccc(S(N)(=O)=O)cc2)cc1` [CBK261600], the viability at 28.5 h, 10 µM is 95.3%.

As to `CC(=O)C1=C(O)C(=O)N(CCCO)C1c1cccc([N+](=O)[O-])c1` (stereo not shown) [CBK263753], the viability at 28.5 h, 10 µM was 92.6%.

Turning to `NC(=O)CCN1CCc2ccccc2C1` [CBK138325], the viability at 28.5 h, 10 µM turned out to be 88.3%.

Regarding `O=C(O)CCCN1C(=O)/C(=C/c2c[nH]c3ccccc23)SC1=S` [CBK262580], the viability at 28.5 h, 10 µM amounted to 119%.

For `CC(=O)N1CCN(C(=O)C[C@@H]2C[C@@H](C(C)C)[C@H](CNC(=O)c3cccnc3)C=C2C)CC1` [CBK289046], the viability at 28.5 h, 10 µM was found to be 102%.

Regarding `O=C1Cc2cc3ccccc3cc2C2(CCN(C(=O)c3ccccc3C(=O)O)CC2)N1` [CBK047216], the viability at 28.5 h, 10 µM came out at 94.8%.

As for `COc1ccc(CN2CCOCC2)cc1Br` [CBK027346], the viability at 28.5 h, 10 µM was 80.8%.

Consider `NC(=O)c1cc(C(=O)c2ccccc2F)c[nH]1` [CBK017284], for which the viability at 28.5 h, 10 µM is 112%.

`Cc1cc(C(=O)N2CCC(Cn3cncn3)(C3CCCCC3)CC2)n[nH]1` [CBK136786]: the viability at 28.5 h, 10 µM was 99.2%.

Take `O=C(Cc1ccccc1)N1CCC(c2nc3ccccc3s2)CC1` [CBK070145]: the viability at 28.5 h, 10 µM is 92.6%.

Turning to `CC(=O)Nc1nnc(SCCc2ccccc2)[nH]1` [CBK262514], the viability at 28.5 h, 10 µM turned out to be 95.6%.

With `CCOC(=O)C1CN(C(=O)N(CCN)Cc2ccc(Cl)cc2)CC1c1ccccc1` (stereo not shown) [CBK001682C], the viability at 28.5 h, 10 µM was found to be 97.8%.

Regarding `CC(=O)c1c(-c2cccc(C(=O)N(C)C3CCN(C)C3)c2)cnn1C` (stereo not shown) [CBK306633], the viability at 28.5 h, 10 µM is 106%.

In the case of `COc1ccc(C(C)N(CCN2CCOCC2)C(=O)NCc2cccc3ccccc23)cc1OC` (stereo not shown) [CBK158984], the viability at 28.5 h, 10 µM is 96.4%.

As for `Nc1ncc(-c2cccs2)nc1-c1ccc(F)c(Cl)c1` [CBK063990], the viability at 28.5 h, 10 µM worked out at 101%.

For the compound `CC(C)c1nsc(NS(=O)(=O)c2cccc(C(F)(F)F)c2)n1` [CBK038881], the viability at 28.5 h, 10 µM is 98.3%.

For `Cc1ccc(C(=O)O)cc1NC(=O)C(=O)NCC(c1ccccc1)N(C)C` (stereo not shown) [CBK286777], the viability at 28.5 h, 10 µM was 96.3%.

Take `Cc1c(Br)c(C(F)(F)F)nn1CC(=O)Nc1ccc(Oc2cc([N+](=O)[O-])cc([N+](=O)[O-])c2)cc1` [CBK262558]: the viability at 28.5 h, 10 µM was 97.5%.

Turning to `C=CCn1c2ccccc2c2nnc(SCC(=O)OCN3C(=O)c4ccccc4C3=O)nc21` [CBK263231], the viability at 28.5 h, 10 µM was found to be 106%.

Take `CCC(=O)N1CCCCC1c1nn(C)cc1-c1onc(C)c1C` (stereo not shown) [CBK283411]: the viability at 28.5 h, 10 µM is 80.5%.

For `Nc1ncc(-c2cccc(OC(F)(F)F)c2)nc1-c1ccc(F)c(Cl)c1` [CBK064021], the viability at 28.5 h, 10 µM was 113%.

`COc1cc(CN2CCN(Cc3ccncc3)CC2)cc(OC)c1O` [CBK263401]: the viability at 28.5 h, 10 µM came out at 80.6%.

Turning to `CC(C)[C@@H](CO)Nc1cncc(-c2cccnc2)n1` [CBK065467], the viability at 28.5 h, 10 µM came to 98.5%.

With `CCOC(=O)C1(C)C=C(Nc2cccc(C)c2)C(=O)N1c1ccccc1` (stereo not shown) [CBK263757], the viability at 28.5 h, 10 µM was determined as 96.8%.

`CC(C)(C)NC(=O)Cn1cncc1-c1cnn(-c2ccccc2)c1` [CBK281697]: the viability at 28.5 h, 10 µM came out at 106%.

As to `Cc1ccc(Nc2c([N+](=O)[O-])nn(-c3ccccc3)[n+]2[O-])cc1F` [CBK268414], the viability at 28.5 h, 10 µM was found to be 102%.

As for `CC(=O)Nc1ccc(C(=O)CSc2nnc(-c3ccncc3)o2)cc1` [CBK266349], the viability at 28.5 h, 10 µM was determined as 105%.

`CN1CCN(C(=O)c2[nH]c3ccccc3c2NS(=O)(=O)c2cc(F)c(Br)cc2F)CC1` [CBK050051]: the viability at 28.5 h, 10 µM was 90.5%.

In the case of `CC(C)(C)OC(=O)N1CCN(c2cc(N)ncn2)CC1` [CBK001963], the viability at 28.5 h, 10 µM turned out to be 101%.

For the compound `COc1cccc(C(=O)NCCC(=O)N2CCOCC2)c1` [CBK304639], the viability at 28.5 h, 10 µM came to 104%.

Consider `Cc1cc(C(=O)CN(C)S(=O)(=O)c2ccc(Cl)c(Cl)c2)c(C)n1C` [CBK295661], for which the viability at 28.5 h, 10 µM came to 102%.

With `COc1cc(Nc2cncc(-c3cccc(F)c3)n2)cc(OC)c1OC` [CBK065272], the viability at 28.5 h, 10 µM came to 93%.

In the case of `O=C(O)CCC(=O)N1C[C@@H]2C[C@H](C1)c1ccc(-c3ccc4ccccc4c3)c(=O)n1C2` [CBK289179], the viability at 28.5 h, 10 µM stood at 107%.

For `O=C(CC[C@@H]1CNC(=O)[C@@H]2C[C@H](NC(=O)c3ccco3)CN12)Nc1ccccc1` [CBK289007], the viability at 28.5 h, 10 µM stood at 91.1%.

Take `[O-][S+]1c2ccccc2Oc2ccccc21` [CBK027634]: the viability at 28.5 h, 10 µM was determined as 94.7%.

Consider `O=C(C1CCN(S(=O)(=O)c2ccc3ccccc3c2)CC1)N1CCC(Cc2ccccc2)CC1` [CBK269558], for which the viability at 28.5 h, 10 µM worked out at 83%.

With `CCCCN1CC(=O)C(c2nc3ccccc3[nH]2)=C1N` [CBK287777], the viability at 28.5 h, 10 µM is 93.7%.

For the compound `O=C(CN1CCOCC1)N1CCN(CCc2ccccc2)CC1` [CBK200215], the viability at 28.5 h, 10 µM was 91.4%.

Take `O=C(NCCO)c1cccc(-c2cncc(N3CCN(Cc4ccccn4)CC3)n2)c1` [CBK065784]: the viability at 28.5 h, 10 µM amounted to 90.1%.

Regarding `O=C(CC1NC(=O)NC1=O)Nc1cccc2ccccc12` (stereo not shown) [CBK267164], the viability at 28.5 h, 10 µM was determined as 90.3%.

`CCCNC(=O)C(C)Sc1nc2ccsc2c(=O)n1CC` (stereo not shown) [CBK296745]: the viability at 28.5 h, 10 µM is 105%.

With `OCCN(Cc1ccccc1)Cc1ccc(Cl)c(Cl)c1` [CBK261908], the viability at 28.5 h, 10 µM turned out to be 117%.

For the compound `Clc1cccc(CN2CCC(N3CCN(c4ccccc4)CC3)CC2)c1` [CBK264690G], the viability at 28.5 h, 10 µM came out at 98.7%.

`CC(C)C(=O)N[C@@H](C)Cn1nc(-c2cccs2)oc1=O` [CBK284335]: the viability at 28.5 h, 10 µM came to 88.3%.

Take `O=C1NC(=O)C2(CCN(C(=O)c3csc4c3CCCC4)C2)N1` (stereo not shown) [CBK305533]: the viability at 28.5 h, 10 µM was 89.8%.

Consider `COCCCN(Cc1ccccn1)Cc1c(F)cccc1F` [CBK282959], for which the viability at 28.5 h, 10 µM came to 93.5%.

Turning to `Cc1noc(C)c1S(=O)(=O)NCc1ccc(C(F)(F)F)c(F)c1` [CBK062112], the viability at 28.5 h, 10 µM was determined as 94.2%.

For the compound `CC(=O)N1N=C(COc2ccc3c(c2)OCO3)OC1c1ccc(C)cc1` (stereo not shown) [CBK294397], the viability at 28.5 h, 10 µM was determined as 83%.

As to `C=C(C)Cn1c(=O)nc(N)c2c3c(sc21)CCC3` [CBK287986], the viability at 28.5 h, 10 µM came to 88.2%.

For the compound `CN(C)CC1CCCCN1C(=O)C1CC2C=CC1C21CC1` (stereo not shown) [CBK282085], the viability at 28.5 h, 10 µM was 86.6%.

Take `CC1(C)CC(=O)C=C(C(=O)NCc2c(F)cccc2F)O1` [CBK153287]: the viability at 28.5 h, 10 µM came out at 91.2%.

With `Cc1c(CNc2nnc(C(C)(C)C)o2)cnn1C` [CBK306439], the viability at 28.5 h, 10 µM was found to be 83.5%.

With `O=C(O)CCc1ccc(S(=O)(=O)Nc2ccc(N3CCCC3=O)cc2)cc1` [CBK295647], the viability at 28.5 h, 10 µM is 106%.

Consider `COc1ccccc1NC(=O)CCSc1nc(C)cc(C)n1` [CBK266371], for which the viability at 28.5 h, 10 µM came to 103%.

For the compound `COc1cccc(CN[C@@H]2CCC[C@H]2Cc2cc(C)no2)c1` [CBK283006], the viability at 28.5 h, 10 µM was 109%.

On to `CCOCCN1CCC(C(=O)NC(c2ccc(F)cc2)c2nc(OC)cc(OC)n2)CC1` (stereo not shown) [CBK148087], for which the viability at 28.5 h, 10 µM came out at 98%.

As for `CCCC(N)CCCCCC(=O)O` (stereo not shown) [CBK217078], the viability at 28.5 h, 10 µM came to 91.8%.

As to `CC(NC(=O)c1cn(C)c(=O)c2ccccc12)c1ccccn1` (stereo not shown) [CBK281886], the viability at 28.5 h, 10 µM was determined as 92.1%.

For the compound `CC(/C=C/c1ccccc1)=N\NC(=O)C(C)Oc1ccc(Br)cc1` (stereo not shown) [CBK261212], the viability at 28.5 h, 10 µM was 99.7%.

As for `N#CC(c1ccc(Br)cc1)n1ccnc1` (stereo not shown) [CBK009985], the viability at 28.5 h, 10 µM came out at 85.6%.

As for `CCCCn1c(SC(C)C(N)=O)nc2cc(C(=O)OC)ccc2c1=O` (stereo not shown) [CBK305877], the viability at 28.5 h, 10 µM was 84%.

In the case of `NNS(=O)(=O)c1ccc(Oc2ccc([N+](=O)[O-])cc2)cc1` [CBK261669], the viability at 28.5 h, 10 µM is 95.9%.

In the case of `CC(=O)NCc1cccc(-c2cc(C(=O)NCCc3cccc(OC(F)(F)F)c3)cnc2-c2ccc(Cl)cc2)c1` [CBK164414], the viability at 28.5 h, 10 µM was determined as 84.7%.

With `Cc1ccc2[nH]c(Cc3ccc(NC(=O)c4cc(=O)n(C)c5ccccc45)cc3)nc2c1` [CBK285815], the viability at 28.5 h, 10 µM turned out to be 98.5%.

For `O=C(Nc1ncccn1)C1CCCCC1` [CBK027567], the viability at 28.5 h, 10 µM was determined as 98.3%.

With `CCc1nn(Cc2ccccn2)c(=O)c2cc3sccc3n12` [CBK284074], the viability at 28.5 h, 10 µM came out at 46.8%.

Take `CN(CC(=O)O)C(=O)c1ccc(Oc2cccc(Br)c2)nc1` [CBK306485]: the viability at 28.5 h, 10 µM came to 90.7%.

Staying with this data set, now noted: human, hela cells, % viability, bulk resorufin, single well.
Take `CN(C)c1ccc(C(=O)N2CCC3(CC2)OCc2cc(Cl)ccc2O3)cc1` [CBK061067]: the viability at 28.5 h, 10 µM was determined as 87.8%.

Source of the values: publication PMC12040169 (PLOS Biology, 2025).
